Experimental data taken from patent US8071565B2 (Novartis AG, priority 2006, dated 2011).
Structures can show the parent of a compound that is named as a salt.

Target: adenosine A2A receptor (Homo sapiens, UniProt P29274)
Assay: adenosine A2A receptor agonist assay (method of Murphree et al, Mol Pharmacol 61, 455-462, 2002)
Assay type: binding
Conditions: method of L. J. Murphree et al
Text: Compounds of formula (I) and their pharmaceutically acceptable salts are useful as pharmaceuticals. In particular, they activate the adenosine A2A receptor, i.e., they act as A2A receptor agonists.

Chain of adenosine A2A receptor (P29274 whole entry): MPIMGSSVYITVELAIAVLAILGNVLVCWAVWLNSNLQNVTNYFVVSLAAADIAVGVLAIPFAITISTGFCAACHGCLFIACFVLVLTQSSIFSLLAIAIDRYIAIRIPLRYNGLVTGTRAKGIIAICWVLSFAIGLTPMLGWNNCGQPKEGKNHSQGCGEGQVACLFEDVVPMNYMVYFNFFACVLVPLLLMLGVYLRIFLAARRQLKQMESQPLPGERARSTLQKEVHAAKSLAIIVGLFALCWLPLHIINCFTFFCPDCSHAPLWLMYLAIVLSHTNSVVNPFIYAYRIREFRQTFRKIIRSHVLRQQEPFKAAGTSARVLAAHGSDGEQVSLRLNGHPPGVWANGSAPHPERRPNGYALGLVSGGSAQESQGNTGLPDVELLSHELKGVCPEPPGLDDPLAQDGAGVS

Ki [nM] | SMILES
33 | O=C(Nc1cccnc1)N[C@@H]1CCN(c2nc(NCC(c3ccccc3)c3ccccc3)c3ncn([C@@H]4C[C@H](N5C(=O)CNC5=O)[C@@H](O)[C@H]4O)c3n2)C1 [Example C2, 1-{(R)-1-[9-[(1R,2S,3R,4S)-4-(2,5-Dioxo-imidazolidin-1-yl)-2,3-dihydroxy-cyclopentyl]-6-(2,2-diphenyl-ethylamino)-9H-purin-2-yl]-pyrrolidin-3-yl}-3-pyridin-3-yl-urea trifluoroacetate]
89 | C[C@@H]1NC(=O)N([C@H]2C[C@@H](n3cnc4c(NCC(c5ccccc5)c5ccccc5)nc(N5CC[C@@H](NC(=O)Nc6cccnc6)C5)nc43)[C@H](O)[C@@H]2O)C1=O [Example C1]
